Results on 2 compounds are retold here after patent US7385026B1, “Modified ghrelin polypeptides” (priority 1999, dated 2008).

Each structure is given as a SMILES string. Several values for one entry are separate records, joined by “and”; a condition that tells them apart may be missing. Equal values may be shown once.

A word on the EC50: it is the concentration at which the effect is half-maximal.

The target of one assay is T1, rat GHS-receptor (GHR-R) (Rattus norvegicus, UniProt O08725).
T1 construct: A full-length cDNA for rat GHR-R was obtained by RT-PCR; expressed in transfected cells
Description: Ca-releasing activity (increase in intracellular calcium) in CHO-GHSR62 cells, FLIPR. It is filed as cell-based. A digest of the protocol: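 CHO cells stably expressing full-length rat GHS-R (CHO-GHSR62) were cultured 12–15 h, loaded with 4 μM Fluo4 for 1 h and washed with Hank's BSS containing 20 mM Hepes and 2.5 mM probenecid. Ca-releasing activity of ghrelin peptides, fragments or derivatives was read by FLIPR as the fluorescence change after sample addition.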

The subject of another assay is IGS-SD strain rats. Description: GH-releasing activity of long-chain ghrelin derivatives in rat (plasma GH 15 min after i.v.). It is filed as in vivo. As for the experimental part:
Fifteen minutes after administration, plasma was collected, and the concentration of GH in plasma was measured by radioimmunoassay (Biotrak/Amersham). Separately, 0.2% bovine serum albumin (BSA)-physiological saline, 6 nmol/kg rGhrelin and hGhrelin, or 80 nmol/kg Ipamorelin (Compound 80) was administered into other rats as the control, respectively, and the concentrations of GH in plasma in 15 minutes after administration were compared (for each sample, n=3).

For another assay, the system named is Wistar strain male rats. In words: Change of GH level in plasma over time after i.v. administration. It is filed as in vivo, rat. To be noted: 5 μg/head i.v.; for GH level in plasma, individual rats (Rat 1-5): listed as [Cys^3(Octyl)]-rat ghrelin. The protocol:
Physiological saline as the control and rat ghrelin (5 μg/head) were also administered and compared with Compound 18.

The test system of a further assay is Wister male rats. In words: Cell growth: 3H-thymidine incorporation into bone marrow, duodenum, jejunum. It is filed as in vivo, rat. Conditions: 20 μg/kg i.v., 18 hours after administration. The protocol: To examine the action of administered ghrelin on promotion of cell growth, the f ollowing experiment was conducted. Twenty μg/kg of rat ghrelin or thioether-type rat ghrelin (Compound 18 [Cys^3(octyl)]-hghrelin) was administered into tail veins of Wister male rats (7.5-week-old) respectively. Seventeen hours after administration, ^3H-thymidine was administered into tail veins, and 1 hour thereafter, duodenum, jejunum and bone marrow were excised. The incorporation of […] to DNA fractions of these tissues was measured in order to examine the cell growth-promoting action of ghrelin and ghrelin derivatives. The tissues were cut thin and homogenized using a Polytron homogenizer, and after centrifugation, the supernatant was precipitated with trichloroacetic acid to give a DNA fraction. The radioactivity of the DNA fraction was measured by a liquid scintillation counter.
Numerical values show the ratio (%) of incorporation of radioisotope relative to the mean (in triplicate) of the comparative example (i.e. the group given physiological saline).

In assay [1] the test system is rat pituitary cultured cells. Description: Intracellular calcium change in primary anterior pituitary cells. It is filed as cell-based. To be noted: FIG. 5a.
Assay [2] has as its system amino-terminal antibody (anti-[C-Cys]-rat ghrelin [1-11] antigen). Description: Radioimmunoassay: inhibition of binding of labeled rat ghrelin to amino-terminal antibody. More on the design: species or system rabbit.
The target of assay [3] is carboxyl-terminal antibody (anti-[C-Cys]-rat ghrelin [13-28] antigen). Description: Radioimmunoassay: inhibition of binding of labeled rat ghrelin to carboxyl-terminal antibody. To be noted: FIG. 9b, amount per reaction tube. Also noted: species or system rabbit. An excerpt: Using antibodies raised against amino- and carboxyl-terminal rat ghrelin peptides as antigens, ghrelin in various living tissues was quantified by radioimmunoassay (RIA).
Rabbits were immunized with [C-Cys]-rat ghrelin [1-11] (rat ghrelin peptide of amino acids 1 to 11 from amino-terminal having cysteine bound to the carboxyl-terminal thereof) and [C-Cys]-rat ghrelin [13-28] (rat ghrelinpeptideof aminoacids 13 to 28 from amino-terminal having cysteine bound to the carboxyl-terminal thereof) as antigens, to form amino-terminal antibody (anti-[C-Cys]-rat ghrelin [1-11] antigen) and carboxyl-terminal antibody (anti-[C-Cys]-rat ghrelin [13-28] antigen) respectively.
That is, it was confirmed that the carboxyl-terminal antibodyhas the same affinity for ghrelin modified with fatty acid and for ghrelin from which fatty acid was released.

T1 sequence (O08725 whole entry): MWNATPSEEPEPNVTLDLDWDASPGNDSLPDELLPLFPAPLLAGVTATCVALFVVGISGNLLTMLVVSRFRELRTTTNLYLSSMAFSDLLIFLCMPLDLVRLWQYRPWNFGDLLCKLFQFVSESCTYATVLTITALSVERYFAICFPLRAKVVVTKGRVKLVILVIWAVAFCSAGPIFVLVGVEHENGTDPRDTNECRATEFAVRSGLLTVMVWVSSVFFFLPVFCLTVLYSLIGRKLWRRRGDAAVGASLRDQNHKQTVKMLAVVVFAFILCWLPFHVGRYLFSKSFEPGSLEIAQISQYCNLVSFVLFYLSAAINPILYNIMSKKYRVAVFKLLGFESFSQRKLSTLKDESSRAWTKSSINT

Regarding `CCCCCCCCSC[C@H](NC(=O)[C@H](CO)NC(=O)CN)C(=O)N[C@@H](Cc1ccccc1)C(=O)N[C@@H](CC(C)C)C(=O)N[C@@H](CO)C(=O)N1CCC[C@H]1C(=O)N[C@@H](CCC(=O)O)C(=O)N[C@@H](Cc1c[nH]cn1)C(=O)N[C@@H](CCC(N)=O)C(=O)N[C@@H](CCCCN)C(=O)N[C@@H](C)C(=O)N[C@@H](CCC(N)=O)C(=O)N[C@@H](CCC(N)=O)C(=O)N[C@@H](CCCNC(=N)N)C(=O)N[C@@H](CCCCN)C(=O)N[C@@H](CCC(=O)O)C(=O)N[C@@H](CO)C(=O)N[C@@H](CCCCN)C(=O)N[C@@H](CCCCN)C(=O)N1CCC[C@H]1C(=O)N1CCC[C@H]1C(=O)N[C@@H](C)C(=O)N[C@@H](CCCCN)C(=O)N[C@@H](CC(C)C)C(=O)N[C@@H](CCC(N)=O)C(=O)N1CCC[C@H]1C(=O)N[C@@H](CCCNC(=N)N)C(=O)O` [Compound 18, [Cys^3(Octyl)]-rGhrelin], the EC50 on rat GHS-receptor (GHR-R) (CHO-GHSR62 cells (CHO cells expressing rat GHS receptor), FLIPR, read-out: Ca-releasing activity EC50) worked out at 5.4 nM. In addition, in the assay with IGS-SD strain rats (dose 30 nmol/kg i.v., n=3), the “GH level in plasma in 15 min. after administration, M ± S.D.” value stood at 2494 ± 253 ng/mL. Besides, in the assay with IGS-SD strain rats (dose 30 nmol/kg i.v., rats under Nembutal), the “GH level in plasma in 15 min. after administration, individual rats (Rat 1-3)” value is 2786 ng/mL and 2342 ng/mL and 2354 ng/mL. Moreover, the “GH-releasing activity (in words)” value in the assay with IGS-SD strain rats (i.v., plasma GH at 15 minutes) is listed as “strong GH-releasing activity”. For the same compound, the “GH level in plasma, Mean ± S.D.” value turned out to be 120 ± 146 ng/mL in the assay with Wistar strain male rats (time 0 min); 450 ± 133 ng/mL in the assay on Wistar strain male rats (time 5 min); 783 ± 324 ng/mL in the assay on Wistar strain male rats (time 10 min); 1093 ± 506 ng/mL in the assay on Wistar strain male rats (time 15 min); 1067 ± 445 ng/mL in the assay with Wistar strain male rats (time 20 min); 589 ± 229 ng/mL with Wistar strain male rats (time 30 min). Further, the “GH level in plasma, Mean ± S.D.” value in the assay on Wistar strain male rats (time 60 min) is 132 ± 53 ng/mL. For the same compound, the “GH level in plasma, individual rats (Rat 1-5)” value is 33 ng/mL and 32 ng/mL and 377 ng/mL and 101 ng/mL and 59 ng/mL in the assay with Wistar strain male rats (time 0 min); 530 ng/mL and 613 ng/mL and 338 ng/mL and 294 ng/mL and 476 ng/mL in the assay with Wistar strain male rats (time 5 min); 959 ng/mL and 1060 ng/mL and 687 ng/mL and 258 ng/mL and 949 ng/mL with Wistar strain male rats (time 10 min); 1451 ng/mL and 1561 ng/mL and 927 ng/mL and 300 ng/mL and 1229 ng/mL in the assay with Wistar strain male rats (time 15 min); 1299 ng/mL and 1359 ng/mL and 900 ng/mL and 358 ng/mL and 1417 ng/mL with Wistar strain male rats (time 20 min); 800 ng/mL and 726 ng/mL and 469 ng/mL and 245 ng/mL and 704 ng/mL in the assay with Wistar strain male rats (time 30 min). In the assay on Wistar strain male rats (time 60 min), the “GH level in plasma, individual rats (Rat 1-5)” value is 220 ng/mL and 122 ng/mL and 98 ng/mL and 86 ng/mL and 133 ng/mL. The “incorporation of 3H-thymidine relative to the mean of the physiological saline group, Bone marrow (in tissues)” value in the assay with Wister male rats is on record as 144.5%. Besides, the “incorporation of 3H-thymidine relative to the mean of the physiological saline group, Duodenum (in DNA fraction)” value in the assay with Wister male rats is 114.0%. Further, the “incorporation of 3H-thymidine relative to the mean of the physiological saline group, Jejunum (in DNA fraction)” value in the assay on Wister male rats is listed as 151.0%.
In the case of `CC(C)C[C@H](NC(=O)[C@H](CCCCN)NC(=O)[C@H](C)NC(=O)[C@@H]1CCCN1C(=O)[C@@H]1CCCN1C(=O)[C@H](CCCCN)NC(=O)[C@H](CCCCN)NC(=O)[C@H](CO)NC(=O)[C@H](CCC(=O)O)NC(=O)[C@H](CCCCN)NC(=O)[C@H](CCCNC(=N)N)NC(=O)[C@H](CCC(N)=O)NC(=O)[C@H](CCC(N)=O)NC(=O)[C@H](C)NC(=O)[C@H](CCCCN)NC(=O)[C@H](CCC(N)=O)NC(=O)[C@H](Cc1c[nH]cn1)NC(=O)[C@H](CCC(=O)O)NC(=O)[C@@H]1CCCN1C(=O)[C@H](CO)NC(=O)[C@H](CC(C)C)NC(=O)[C@H](Cc1ccccc1)NC(=O)[C@H](CO)NC(=O)[C@H](CO)NC(=O)CN)C(=O)N[C@@H](CCC(N)=O)C(=O)N1CCC[C@H]1C(=O)N[C@@H](CCCNC(=N)N)C(=O)O` [Compound 7, [Ser^3]-rat Ghrelin], at rat GHS-receptor (GHR-R) (CHO-GHSR62 cells), the “Ca-releasing activity (in words)” value is “did not show a significant Ca-releasing activity”. The “change in intracellular calcium ion concentration” value in assay [1] is listed as “slightly increased Ca-releasing activity”. Further, in assay [2], the “reaction / affinity with the amino-terminal antibody (in words)” value was “did not react”. Further, in assay [3], the “IC50 in binding between radioisotope-labeled rat ghrelin and the carboxyl-terminal antibody” value worked out at 44 fmol.
